# Source: US11446298B2, “Pyrimidine derivatives” (Idorsia Pharmaceuticals Ltd, priority 2017, dated 2022)
# Key:
# Type in all cases: cell-based
# PTGER4 (EP4) = biological target: T1, PTGER4 (EP4) (Homo sapiens, UniProt P35408); experiment: hEP4 b-Arrestin Assay (PathHunter HEK 293 PTGER4 b-arrestin cells, PGE2 20 nM); conditions: antagonistic activity, beta-arrestin assay, HEK 293 PTGER4 cells, PGE2 20 nM (EC80); read-out: hEP4 b-arr IC50
# T1 construct: host or cells: HEK 293 (PathHunter, stably transfected)
# T1 sequence (P35408 whole entry): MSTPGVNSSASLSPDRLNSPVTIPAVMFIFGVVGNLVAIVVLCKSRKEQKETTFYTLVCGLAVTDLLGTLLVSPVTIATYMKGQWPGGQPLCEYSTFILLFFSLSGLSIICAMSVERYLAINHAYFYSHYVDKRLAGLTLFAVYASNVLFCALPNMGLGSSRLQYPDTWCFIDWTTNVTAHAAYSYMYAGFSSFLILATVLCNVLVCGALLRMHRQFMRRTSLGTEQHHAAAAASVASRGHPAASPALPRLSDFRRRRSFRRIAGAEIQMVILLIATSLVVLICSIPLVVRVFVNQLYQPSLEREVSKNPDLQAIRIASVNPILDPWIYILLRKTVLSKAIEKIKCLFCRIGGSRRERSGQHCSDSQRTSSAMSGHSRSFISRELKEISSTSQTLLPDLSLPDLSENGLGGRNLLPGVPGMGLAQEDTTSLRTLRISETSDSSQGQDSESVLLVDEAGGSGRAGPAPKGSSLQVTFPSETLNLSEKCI
# How it was run: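 PathHunter HEK 293 EP4 b-arrestin enzyme-complementation cells preincubated 15 min at 37° C with compound (10 μM-2 nM or 1 μM-0.2 nM), then stimulated 120 min with 20 nM PGE2 (EC80). Chemiluminescence read; IC50 from duplicate % activity vs DMSO, one-site fit, averaged over repeats.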
# PTGER2 (EP2) = biological target: T2, PTGER2 (EP2) (Homo sapiens, UniProt P43116); experiment: hEP2 b-Arrestin Assay (PathHunter HEK 293 PTGER2 b-arrestin cells, PGE2 5 μM); conditions: antagonistic activity, beta-arrestin assay, HEK 293 PTGER2 cells, PGE2 5 μM (EC80); read-out: hEP2 b-arr IC50
# T2 construct: host or cells: HEK 293 (PathHunter, stably transfected)
# T2 sequence (P43116 whole entry): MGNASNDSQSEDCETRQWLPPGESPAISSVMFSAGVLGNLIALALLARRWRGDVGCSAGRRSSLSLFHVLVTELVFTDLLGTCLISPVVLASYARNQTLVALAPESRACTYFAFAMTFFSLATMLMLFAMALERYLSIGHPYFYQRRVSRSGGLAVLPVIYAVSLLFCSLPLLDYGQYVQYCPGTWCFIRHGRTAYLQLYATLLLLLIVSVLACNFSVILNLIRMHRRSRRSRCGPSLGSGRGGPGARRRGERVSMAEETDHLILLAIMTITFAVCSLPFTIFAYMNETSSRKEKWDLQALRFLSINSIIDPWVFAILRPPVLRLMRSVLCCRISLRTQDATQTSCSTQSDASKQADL
# How it was run: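 PathHunter enzyme-fragment complementation in HEK 293 cells: compounds (10 μM-2 nM or 1 μM-0.2 nM) pre-incubated 15 min at 37 °C, then 5 μM PGE2 (EC80) for 120 min at 37 °C. Chemiluminescence read after 1 h detection; IC50 from duplicate dose-response fits, means of repeats.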
# EP4 = biological target: T3, EP4 (Homo sapiens, UniProt P35408); experiment: hEP4 cAMP Assay (BT549 breast cancer cells, HTRF cAMP, PGE2 6 nM); conditions: antagonistic activity, PGE2 6 nM (EC80)
# T3 construct: BT549 breast cancer cells, express high endogenous EP4 levels and very low EP2 levels; host or cells: BT549 breast cancer cells
# T3 sequence (P35408 whole entry): as the sequence (P35408 whole entry) above
# How it was run: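 Antagonism is measured as inhibition of PGE2 (6 nM final, EC80) cAMP accumulation in EP4-expressing BT549 breast cancer cells, after a 45 min room-temperature compound pre-incubation and 30 min agonist step, with 2 mM IBMX present. HTRF ratio gives cAMP relative to DMSO; IC50 fitted, means over repeat runs.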
# EP2 = biological target: T4, EP2 (Homo sapiens, UniProt P43116); experiment: hEP2 cAMP Assay (SF295 glioblastoma cells, HTRF cAMP, PGE2 75 nM); conditions: antagonistic activity, PGE2 75 nM (EC80)
# T4 construct: SF295 glioblastoma cells express high endogenous EP2 and no EP4; host or cells: SF295 glioblastoma cells
# T4 sequence (P43116 whole entry): as the sequence (P43116 whole entry) above
# How it was run: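 IC50 values derive from duplicate-point curves of percent cAMP relative to DMSO, read by HTRF (665/620 nm) against a cAMP calibrator. Compounds (30 μM to 0.01 nM ranges) were given 45 min at room temperature before 30 min with 75 nM PGE2, in EP2-only SF295 cells with 2 mM IBMX.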
Structure (SMILES),IC50 (PTGER4 (EP4)) [nM],IC50 (PTGER2 (EP2)) [nM],IC50 (EP4) [nM],IC50 (EP2) [nM]
"CCOc1cc(-c2cc(NCCc3c(OC)ccc4ccccc34)ncn2)sc1C(=O)NS(N)(=O)=O [Example 135, 3-Ethoxy-5-(6-((2-(2-methoxynaphthalen-1-yl)ethyl)amino)pyrimidin-4-yl)-N-sulfamoylthiophene-2-carboxamide]",23,5,67,3
"Cn1ccc2c(CCNc3cc(-c4ccc(C(=O)O)c(OC5CCC5)c4)ncn3)cccc21 [Example 159, 2-Cyclobutoxy-4-{6-[2-(1-methyl-1H-indol-4-yl)-ethylamino]-pyrimidin-4-yl}-benzoic acid]",864,44,1050,110
"COc1ccc2ccccc2c1CCNc1cc(-c2ccc(-c3c(O)c(=O)c3=O)cc2)ncn1 [Example 116, 3-Hydroxy-4-(4-{6-[2-(2-methoxy-naphthalen-1-yl)-ethylamino]-pyrimidin-4-yl}-phenyl)-cyclobut-3-ene-1,2-dione]",1140,25,241,67
"COc1ccc2ccccc2c1CCNc1cc(-c2ccc(C(=O)O)c(OC3CCC3)c2)ncn1 [Example 5, 2-Cyclobutoxy-4-{6-[2-(2-methoxy-naphthalen-1-yl)-ethylamino]-pyrimidin-4-yl}-benzoic acid]",182,25,203,24
"CCOc1nc(-c2cc(NCCc3c(OC)ccc4ccccc34)ncn2)sc1C(=O)O [Example 147, 4-Ethoxy-2-{6-[2-(2-methoxy-naphthalen-1-yl)-ethylamino]-pyrimidin-4-yl}-thiazole-5-carboxylic Acid]",40,7,44,10
"CCOc1cc(-c2cc(NCCc3c(OCC)ccc4ccccc34)ncn2)ccc1C(=O)O [Example 179, 2-Ethoxy-4-{6-[2-(2-ethoxy-naphthalen-1-yl)-ethylamino]-pyrimidin-4-yl}-benzoic acid]",934,4,1500,8
"CCOc1cc(-c2cc(NCCc3c(OC)ccc4ncccc34)ncn2)sc1-c1nnn[nH]1 [Example 145, {6-[4-Ethoxy-5-(1H-tetrazol-5-yl)-thiophen-2-yl]-pyrimidin-4-yl}-[2-(6-methoxy-quinolin-5-yl)-ethyl]-amine]",18,16,53,81
"CCOc1cc(-c2cc(NCCc3ccc(Br)c4ccccc34)ncn2)ccc1C(=O)O [Example 182, 4-{6-[2-(4-Bromo-naphthalen-1-yl)-ethylamino]-pyrimidin-4-yl}-2-ethoxy-benzoic acid]",193,142,182,209
"CCOc1cc(-c2cc(NCCc3cccc4ncccc34)ncn2)sc1-c1noc(=O)[nH]1 [Example 188, 3-{3-Ethoxy-5-[6-(2-quinolin-5-yl-ethylamino)-pyrimidin-4-yl]-thiophen-2-yl}-[1,2,4]oxadiazol-5(4H)-one]",282,59,22,324
"CCOc1cc(-c2cc(NCCc3c(OC)ccc4ncccc34)ncn2)sc1-c1noc(=O)[nH]1 [Example 142, 3-(3-Ethoxy-5-{6-[2-(6-methoxy-quinolin-5-yl)-ethylamino]-pyrimidin-4-yl}-thiophen-2-yl)-[1,2,4]oxadiazol-5(4H)-one]",10,7,27,40
"COc1ccc2c(c1CCNc1cc(-c3cc(C(F)(F)F)c(C(=O)O)s3)ncn1)CCCN2C [Example 154, 5-{6-[2-(6-Methoxy-1-methyl-1,2,3,4-tetrahydro-quinolin-5-yl)-ethylamino]-pyrimidin-4-yl}-3-trifluoromethyl-thiophene-2-carboxylic Acid]",125,57,177,144
"CCOc1cc(-c2cc(NCCc3cccc4c(C)cccc34)ncn2)ccc1CC(=O)O [Example 164, (2-Ethoxy-4-{6-[2-(5-methyl-naphthalen-1-yl)-ethylamino]-pyrimidin-4-yl}-phenyl)-acetic acid]",181,44,110,130

# More lines, now with the values ahead:
IC50 (PTGER4 (EP4)) [nM],IC50 (PTGER2 (EP2)) [nM],IC50 (EP4) [nM],IC50 (EP2) [nM],Structure (SMILES)
164,241,148,136,"CCOc1cc(-c2cc(NCCc3cccc4c(C)c(C)n(C)c34)ncn2)sc1C(=O)O [Example 29, 3-Ethoxy-5-{6-[2-(1,2,3-trimethyl-1H-indol-7-yl)-ethylamino]-pyrimidin-4-yl}-thiophene-2-carboxylic acid]"
1910,43,1040,143,"COc1ccc2ccccc2c1CCNc1cc(-c2cc(OCCN(C)C)c(C(=O)O)s2)ncn1 [Example 157, 3-(2-Dimethylamino-ethoxy)-5-{6-[2-(2-methoxy-naphthalen-1-yl)-ethylamino]-pyrimidin-4-yl}-thiophene-2-carboxylic Acid]"
50,41,51,56,"CCOc1cc(-c2cc(NCCc3c(N)ccc4ccccc34)ncn2)sc1C(=O)O [Example 78, 5-{6-[2-(2-Amino-naphthalen-1-yl)-ethylamino]-pyrimidin-4-yl}-3-ethoxy-thiophene-2-carboxylic acid]"
48,78,66,79,"CCOc1cc(-c2cc(NCCc3ccc(C#N)c4ccccc34)ncn2)sc1C(=O)O [Example 69, 5-{6-[2-(4-Cyano-naphthalen-1-yl)-ethylamino]-pyrimidin-4-yl}-3-ethoxy-thiophene-2-carboxylic acid]"
203,17,96,15,"CCOc1cc(-c2cc(NCCc3cccc4ccn(C)c34)ncn2)sc1C(=O)O [Example 24, 3-Ethoxy-5-{6-[2-(1-methyl-1H-indol-7-yl)-ethylamino]-pyrimidin-4-yl}-thiophene-2-carboxylic acid]"
311,27,100,47,"CCOc1cc(-c2cc(NCCc3c(C)ccc4ncccc34)ncn2)sc1C(=O)O [Example 2, 3-Ethoxy-5-{6-[2-(6-methyl-quinolin-5-yl)-ethylamino]-pyrimidin-4-yl}-thiophene-2-carboxylic acid]"
24,7,22,3,"CCOc1cc(-c2cc(NCCc3c(C#N)ccc4ccccc34)ncn2)sc1C(=O)O [Example 68, 5-{6-[2-(2-Cyano-naphthalen-1-yl)-ethylamino]-pyrimidin-4-yl}-3-ethoxy-thiophene-2-carboxylic acid]"
51,8,21,4,"CCOc1cc(-c2cc(NCCc3c(F)ccc4ccccc34)ncn2)sc1C(=O)O [Example 95, 3-Ethoxy-5-{6-[2-(2-fluoro-naphthalen-1-yl)-ethylamino]-pyrimidin-4-yl}-thiophene-2-carboxylic acid]"
244,30,130,32,"CCOc1cc(-c2cc(NCCc3c(C)ccc4cnccc34)ncn2)sc1C(=O)O [Example 85, 3-Ethoxy-5-{6-[2-(6-methyl-isoquinolin-5-yl)-ethylamino]-pyrimidin-4-yl}-thiophene-2-carboxylic acid]"
8,50,6,50,"CCOc1cc(-c2cc(NCCc3ccc(C(F)F)c4ccccc34)ncn2)sc1C(=O)O [Example 72, 5-{6-[2-(4-Difluoromethyl-naphthalen-1-yl)-ethylamino]-pyrimidin-4-yl}-3-ethoxy-thiophene-2-carboxylic acid]"
196,36,92,25,"CCOc1cc(-c2cc(NCCc3c(C)ccc4c3cnn4C)ncn2)sc1C(=O)O [Example 79, 5-{6-[2-(1,5-Dimethyl-1H-indazol-4-yl)-ethylamino]-pyrimidin-4-yl}-3-ethoxy-thiophene-2-carboxylic acid]"
117,212,88,78,"CCOc1cc(-c2cc(NCCc3cccc4cc(C)oc34)ncn2)sc1C(=O)O [Example 74, 3-Ethoxy-5-{6-[2-(2-methyl-benzofuran-7-yl)-ethylamino]-pyrimidin-4-yl}-thiophene-2-carboxylic acid]"
